Molecules are shown by their SMILES. Where two headings read alike, the source gives them in different places.

Series [1] is described as follows: Pharmacokinetic testing of salt forms, oral dosing in rats (Example 5). The settings on record: fasted male Sprague-Dawley rats, mean values. Format: in vivo.
Series [2] in a line: Solid state stability at 40° C./75% RH for 3 weeks (HPLC purity, form change). Format: physicochemical. As to conditions: for chemical stability (HPLC purity change, in words): 3 weeks at 40° C. and 75% relative humidity; for Form Change at 3 weeks / HPLC Purity at 3 weeks: 3 weeks under 40° C./75% RH; for Initial HPLC Purity: before storage. As for the experimental part: Agilent 1260 HPLC was utilized and detailed chromatographic conditions for purity and solubility measurement are listed in Table 15 below.
The table below summarizes the characterization and solid state stability results observed for FB and Forms A, B, and D. Samples were prepared and data was obtained according to the procedures and processes listed above unless otherwise specified. More procedures, processes, and results are listed below in Table 16.

Series [3] can be described thus: Dynamic Vapor Sorption (DVS), hygroscopicity/water uptake. Format: physicochemical. The settings on record: for Hygroscopicity: DVS up to 80% RH at 25° C.; for water uptake at 80% RH: DVS; for water uptake at 80% RH / Form change (FC) after DVS: 25° C.; for Form change (FC) after DVS: at the end of the DVS test, up to 80% RH. On the procedure: The Dynamic Vapour Sorption studies were performed using a Surface Measurement Systems Ltd. DVS-1 No Video, equipment #2126. The sample is loaded into balance pan, typically 20-30 mg, and equilibrated at 0% RH. […] After completion of the sorption cycle, the sample was dried using the same method. The software used for data collection is DVSWin v3.01 No Video. Data analysis is performed using DVS Standard Analysis Suite v6.3.0 (Standard).

Series [4] can be described thus: Kinetic solubility in bio-relevant buffers (FaSSIF, FeSSIF, SGF). Format: physicochemical. The settings on record: 37° C.
A short description of series [5]: pH solubility in pH 2, 4, 6, 8 and 10 buffers. The settings on record: 37° C.; for Form change (FC) of residual solid, pH 4.0: pH 4.0 buffer; for Form change (FC) of residual solid, pH 6.0: pH 6.0 buffer; for Form change (FC) of residual solid, pH 8.0: pH 8.0 buffer; for Form change (FC) of residual solid, pH 10.0: pH 10.0 buffer. In kind it is physicochemical.
A short description of series [6]: Stability studies of crystalline forms (Table 17, stability by HPLC). Format: physicochemical. The settings on record: for Stability by HPLC (in words): stability studies of Table 17; for Stability Results, 40° C.: stored at 40° C.; for Stability Results, 40° C./75% RH: stored at 40° C./75% RH; for Stability Results, 60° C.: stored at 60° C.; for Stability Results, 60° C./75% RH: stored at 60° C./75% RH.

Series [7] is described as follows: Moisture sorption isotherm of crystalline forms. In kind it is physicochemical. The settings on record: for crystal form by XRPD after the moisture absorption/desorption cycle: XRPD before and after moisture sorption isotherm.
The nature of series [8]: Salt screening, stability of salt forms. Format: physicochemical. The settings on record: salt screening of Compound 1. As for the experimental part: The salt screen was performed using the Crystal16 equipment.
[9] abbreviates: dose mg/kg: Compound 1 18.2, Phosphate 14.3, Tartrate 18.7, Malate 18.6, Succinate 18.7, Benzenesulfonate 17.6.

For the molecule `CN1CCN(Cc2ccc(Nc3ncc(Cl)c(Nc4ccccc4S(=O)(=O)N(C)C)n3)cc2)CC1` [Compound 1, 2-((5-chloro-2-((4-((4-methylpiperazin-1-yl)methyl)phenyl)amino)pyrimidin-4-yl)amino)-N,N-dimethylbenzenesulfonamide], in series [1] (rat, plasma, 18.2 mg/kg, dose mg/kg: Compound 1 18.2, Phosphate 14.3, Tartrate 18.7, Malate 18.6, Succinate 18.7, Benzenesulfonate 17.6), the bioavailability (commonly the share of a dose that reaches the circulation, judged against a reference dose that is usually intravenous) stood at 26.9%. In series [1] (rat, plasma, 18.2 mg/kg, dose mg/kg: Compound 1 18.2, Phosphate 14.3, Tartrate 18.7, Malate 18.6, Succinate 18.7, Benzenesulfonate 17.6, read-out: AUC0-24 hours), the AUC(0-t) was determined as 458 ng·h/mL. The Cmax (usually the peak of the concentration-time curve) in series [1] (rat, plasma, 18.2 mg/kg, dose mg/kg: Compound 1 18.2, Phosphate 14.3, Tartrate 18.7, Malate 18.6, Succinate 18.7, Benzenesulfonate 17.6, read-out: Cmax) was determined as 116 ng/mL. In series [1] (rat, plasma, 18.2 mg/kg, dose mg/kg: Compound 1 18.2, Phosphate 14.3, Tartrate 18.7, Malate 18.6, Succinate 18.7, Benzenesulfonate 17.6, read-out: Tmax), the time to peak (Tmax) (in general, the time at which the peak concentration occurs) is 50 min. In addition, in series [2], the “chemical stability (HPLC purity change, in words)” value is recorded as “no significant HPLC purity decrease”; the “Form Change at 3 weeks” value was “No”; the “HPLC Purity at 3 weeks” value stood at 98.6 area %; the “Initial HPLC Purity” value is 98.3 area %. Besides, in series [3] (listed as Free Base), the Hygroscopicity result was “Non-hygroscopic/”, the “water uptake at 80% RH” value worked out at 0.07% and the “Form change (FC) after DVS” value is “No”. In series [3] (listed as free base), the Hygroscopicity result is “non-hygroscopic”, the “water uptake at 80% RH” value is reported as “less than 0.2%” and the “Form change (FC) after DVS” value is recorded as “no form change”. Moreover, the “Form change (FC) of residual solid, FaSSIF” value in series [4] (FaSSIF, 24 hours) is on record as “No”. Also, the “Form change (FC) of residual solid, FeSSIF” value in series [4] (FeSSIF, 24 hours) is listed as “No”. The “Form change (FC) of residual solid, SGF” value in series [4] (SGF, 24 hours) was “No”. Further, the “Form change (FC) of residual solid, pH 2.0” value in series [5] (pH 2.0 buffer, 24 hours) is “Yes”. In addition, in series [5] (24 hours), the “Form change (FC) of residual solid, pH 4.0” value is recorded as “Yes”; the “Form change (FC) of residual solid, pH 6.0” value was “No”; the “Form change (FC) of residual solid, pH 8.0” value is recorded as “No”; the “Form change (FC) of residual solid, pH 10.0” value is recorded as “No”.
Regarding `CN1CCN(Cc2ccc(Nc3ncc(Cl)c(Nc4ccccc4S(=O)(=O)N(C)C)n3)cc2)CC1.O=C(O)C[C@H](O)C(=O)O` [Malate Salt], in series [1] (setting [9]), the AUC0-24 hours came to 515 ng·h/mL, the Cmax is 134 ng/mL and the Tmax stood at 30 min.
In the case of `CN1CCN(Cc2ccc(Nc3ncc(Cl)c(Nc4ccccc4S(=O)(=O)N(C)C)n3)cc2)CC1.O=C(O)C(O)C(O)C(=O)O.O=C(O)C(O)C(O)C(=O)O` [Form A, 2-((5-chloro-2-((4-((4-methylpiperazin-1-yl)methyl)phenyl)amino)pyrimidin-4-yl)amino)-N,N-dimethylbenzenesulfonamide di-tartrate salt], in series [2], the “chemical stability (HPLC purity change, in words)” value is “no significant HPLC purity decrease”; the “Form Change at 3 weeks” value was “No”; the “HPLC Purity at 3 weeks” value is 99.7 area %; the “Initial HPLC Purity” value was 99.6 area %. In series [3] (di-tartrate salt), the “water uptake at 80% RH” value was determined as 4.6%. For the same molecule, the “Form change (FC) after DVS” value in series [3] is recorded as “No”. For the same molecule, the “pH solubility compared between polymorphs (in words)” value in series [5] (pH 2, 4 and 6 buffers) is “higher solubility than other polymorphs”. For the same molecule, in series [5] (24 hours), the “Form change (FC) of residual solid, pH 4.0” value was “Yes”; the “Form change (FC) of residual solid, pH 6.0” value is on record as “Yes”; the “Form change (FC) of residual solid, pH 8.0” value is given as “Yes”; the “Form change (FC) of residual solid, pH 10.0” value is “Yes”. For the same molecule, in series [6], the “Stability Results, Initial” value stood at 99.3%; the “Stability Results, 40° C.” value is on record as 99.3%; the “Stability Results, 40° C./75% RH” value was found to be 99.3%; the “Stability Results, 60° C.” value was 99.3%. Besides, the “Stability Results, 60° C./75% RH” value in series [6] is 99.3%. The “Stability by HPLC (in words)” value in series [6] (di-tartrate salt) is “No significant changes”. The “Stability by HPLC (in words)” value in series [6] (listed as A, di-tartrate salt) is “Stable”. Further, in series [7], the “Moisture sorption isotherm (in words)” value was “hygroscopic” and the “crystal form by XRPD after the moisture absorption/desorption cycle” value is listed as “maintained”.
With `CN1CCN(Cc2ccc(Nc3ncc(Cl)c(Nc4ccccc4S(=O)(=O)N(C)C)n3)cc2)CC1.O=C(O)C(O)C(O)C(=O)O` [Form D, 2-((5-chloro-2-((4-((4-methylpiperazin-1-yl)methyl)phenyl)amino)pyrimidin-4-yl)amino)-N,N-dimethylbenzenesulfonamide mono-tartrate salt], in series [2], the “chemical stability (HPLC purity change, in words)” value is listed as “no significant HPLC purity decrease”; the “Form Change at 3 weeks” value is listed as “No”; the “HPLC Purity at 3 weeks” value stood at 98.3 area %; the “Initial HPLC Purity” value is given as 98.8 area %. In series [3] (mono-tartrate salt), the “water uptake at 80% RH” value was 5.2%; the “Form change (FC) after DVS” value was “form change observed and Yes”. Also, the “Kinetic solubility in FaSSIF compared between forms (in words)” value in series [4] (FaSSIF) is “lower solubility than other Forms A and B”. Also, the “Form change (FC) of residual solid, FaSSIF” value in series [4] (FaSSIF, 24 hours) is given as “Yes”. Besides, in series [5] (24 hours), the “Form change (FC) of residual solid, pH 4.0” value is “Yes”; the “Form change (FC) of residual solid, pH 6.0” value is “Yes”; the “Form change (FC) of residual solid, pH 8.0” value is “Yes”; the “Form change (FC) of residual solid, pH 10.0” value is “Yes”. Further, in series [6], the “Stability Results, Initial” value was found to be 98.4%; the “Stability Results, 40° C.” value is on record as 98.2%; the “Stability Results, 40° C./75% RH” value turned out to be 98.4%; the “Stability Results, 60° C.” value is listed as 98.2%. In series [6], the “Stability Results, 60° C./75% RH” value was found to be 98.2%. Further, the “Stability by HPLC (in words)” value in series [6] (listed as D, mono-tartrate salt) is reported as “Stable”. In addition, the “Stability by HPLC (in words)” value in series [6] (mono-tartrate salt) is “No significant changes”. In series [7], the “Moisture sorption isotherm (in words)” value was “hygroscopic” and the “crystal form by XRPD after the moisture absorption/desorption cycle” value is “transformed to the other forms”.
Take `CN1CCN(Cc2ccc(Nc3ncc(Cl)c(Nc4ccccc4S(=O)(=O)N(C)C)n3)cc2)CC1.O=P(O)(O)O` [Phosphate Salt]: the “stability of the salt form (in words)” value in series [8] is reported as “undesirable stability characteristics”.

The values above are taken from patent publication US20220380348A1, “AXL INHIBITOR FORMULATIONS” (Sumitomo Dainippon Pharma Oncology, Inc., priority 2019, published 2022).
